Earlier results, collected in patent US11737988B2, “Anti-hypertensive and cholesterol-lowering fixed-dose combination and method of manufacture” (CardioPharma, Inc., priority 2019, dated 2023).

Conditions: cholesterol-lowering drugs (statins); known to those of skill in the art

SMILES	bioavailability
O=C(O)C[C@H](O)C[C@H](O)/C=C/c1c(C2CC2)nc2ccccc2c1-c1ccc(F)cc1 [pitvastatin]	60%
COCc1c(C(C)C)nc(C(C)C)c(/C=C/[C@@H](O)C[C@@H](O)CC(=O)O)c1-c1ccc(F)cc1 [cerivastatin]	60%
